Reference: patent US8901313B2, “6,5-heterocyclic propargylic alcohol compounds and uses therefor” (Genentech, Inc., priority 2011, dated 2014)

Assays:
[1] = test system: REL-A (p65) nuclear translocation in HeLa cells; assay: NIK RelA Translocation Assay (classical NF-kB signaling); format: cell-based; conditions: Homo sapiens; HeLa cells, compounds 4.5 hours, 10 ng/mL TNF-α 30 minutes; read-out: inhibitory value (IC50) for NIK RelA Translocation Assay
Protocol: (§1) (2) A second set of cell assay was used to define the selectivity of NIK inhibitors toward inhibition of classical vs. non-classical NF-kB signaling and rely on quantification of the nuclear translocation of p52 (NF-kB2) and REL-A (p65) using high content cellular imaging. For the p52 (non-classical NF-kB signaling) nuclear translocation assay, HeLa cells were treated with different concentrations of compounds (0.2% DMSO final) in medium containing 10% fetal bovine serum and then stimulated with 100 ng/mL of an anti-lymphotoxin beta receptor antibody (R&D Systems) for 5 hours. In the REL-A nuclear translocation assay, HeLa cells were incubated with compounds (0.2% DMSO final) for 4.5 hours in medium containing 10% fetal bovine serum before stimulating them with 10 ng/mL tumor necrosis factor (TNF)-α (R&D Systems) for 30 minutes. Cells were fixed with 4% paraformaldehyde, permeabilized by adding 0.1% Triton X-100 in phosphate buffered saline, and then incubated with either 2 ug/mL anti-p52 antibody (Millipore) or 400 ng/mL anti-REL-A (p65) antibody (Santa Cruz Biotechnology). Finally, the cells were incubated with an Alexa488-labeled secondary antibody (Invitrogen) and DRAQ5 DNA stain (Biostatus). Imaging was carried out using an Opera reader (Perkin Elmer) and data are analyzed with the aid of Acapella software (Perkin Elmer). The p52 or REL-A translocation into the nucleus was quantified by the ratio of the nuclear to cytoplasmic signal intensity. The concentration of inhibitor required for 50% inhibition (IC50 values) in these cell assays were derived from the plots of signal vs. inhibitor concentration. The compounds in listed in Table 1 have the corresponding inhibitory value (IC50 in micromolar) for NIK p52 Translocation Assay (values for compounds are presented in the same order as found in Table 1, and “na” means the data for this assay is to be determined): 0.326, 0.33, na, na, na, 0.218, 0.07, na, na, na, 0.129, 7.6, 0.077, 3.4, na, 0.518, na, 0.059, 0.514, 0.127, na, na, 0.010, na, na, 0.313, 0.275, na, 0.0727, na, na, na, na, na, na, 0.194, na, 6.4, 0.22, 0.346, na, na, na and na, na, na, na, na, na, 0.447, na, 0.089, 0.479, 0.489, 0.243, 0.747, 1, na, 1.9, 0.552, 2.1, na. na, na, na, na and na.
The compounds in listed in Table 1 has the corresponding inhibitory value (IC50 in micromolar) for NIK RelA Translocation Assay (values for compounds are presented in the same order as found in Table 1): 0.326, 0.33, na, na, na, 0.218, 0.07, na, na, na, na, na, 0.129, 7.6, 0.077, 3.4, na, 0.518, na, 0.059, 0.514, 0.127, na, na, 0.010, na, na, 0.313, 0.275, na, na, 0.0727, na, na, na, na, na, na, 0.194, na, 6.4, 0.22, 0.346, na, na, na, na, na, na, na, na, na, 0.447, na, 0.089, 0.479, 0.489, 0.243, 0.747, 1, na, 1.9, 0.552, 2.1, na, na, na, na, na and na.

[2] = test system: NF-kB signaling through NIK in human embryonic kidney 293 cells; assay: 293-NIK NF-kB-Luciferase reporter assay; format: cell-based; conditions: HEK293, 293 cells with tetracycline-inducible NIK, 1 ug/mL doxycycline, 24 hours, read-out: inhibitory value (IC50) for 293-NIK NF-kB-Luciferase activity
Source text: (1) The first assay was used to profile whether a test compound can inhibit the NF-kB signally through NIK inhibition without affecting cell viability. In this assay, human embryonic kidney 293 cells was stably transfected with a tetracycline-inducible NIK DNA construct containing a cytomegalovirus promoter plus two reporter DNA constructs. One reporter encoded firefly luciferase under the control of three repeats of an NF-kB response element from the ELAM-1 gene and reflects the level of NIK activity in the cells, whereas the other reporter constitutively expressed Renilla luciferase under the control of the herpes simplex virus thymidine kinase promoter and served as a general measure of cell viability. Cells were incubated with different concentrations of compounds (0.2% DMSO final) in medium containing 1 ug/mL doxycycline and 10% tet-system approved fetal bovine serum (Clontech) for 24 hours, after which the reporters' signals were detected using the Dual Glo luciferase detection system (Promega) according to the vendor's protocol. The compounds listed in Table 1 have the corresponding inhibitory value (IC50 in micromolar) for 293-NIK NF-kB-Luciferase activity (values for compounds are presented in the same order as found in Table 1): na, 0.059, na, na, na, 0.105, 0.027, na, 20, 1.2, na, 1.8, 0.0231, 0.879, 0.0361, 0.582, na, 0.142, na, 0.403, 0.059, 0.0331, na, na, 0.0573, 1.5, na, na, 0.0722, na, na, 0.589, 12.7, 3.7, 14.9, na, 0.707, 1, 0.0311, 0.332, 0.309, 0.0142, 0.051, 2.8, 0.129, na, na, 1.5, na, na, na, 1.3, 0.062, 20, 0.31, 0.104, 0.091, 0.037, 0.085, 0.279, na, 0.305, 0.064, 0.332, 0.133, 0.168, 0.217, 0.553, na and na.

[3] = biological target: T1, nuclear factor-kappa B (NF-kB)-inducing kinase (NIK) (Homo sapiens, UniProt Q99558); assay: NIK Enzyme Inhibition Assay (Transcreener ADP assay); format: biochemical; conditions: purified NIK 0.2-1 nM, 10 uM ATP, fluorescence polarization, Morrison's quadratic equation; read-out: inhibitory value (Ki) for NIK
T1 construct: made in house; host or cells: baculovirus-infected insect cells
T1 sequence (Q99558 whole entry): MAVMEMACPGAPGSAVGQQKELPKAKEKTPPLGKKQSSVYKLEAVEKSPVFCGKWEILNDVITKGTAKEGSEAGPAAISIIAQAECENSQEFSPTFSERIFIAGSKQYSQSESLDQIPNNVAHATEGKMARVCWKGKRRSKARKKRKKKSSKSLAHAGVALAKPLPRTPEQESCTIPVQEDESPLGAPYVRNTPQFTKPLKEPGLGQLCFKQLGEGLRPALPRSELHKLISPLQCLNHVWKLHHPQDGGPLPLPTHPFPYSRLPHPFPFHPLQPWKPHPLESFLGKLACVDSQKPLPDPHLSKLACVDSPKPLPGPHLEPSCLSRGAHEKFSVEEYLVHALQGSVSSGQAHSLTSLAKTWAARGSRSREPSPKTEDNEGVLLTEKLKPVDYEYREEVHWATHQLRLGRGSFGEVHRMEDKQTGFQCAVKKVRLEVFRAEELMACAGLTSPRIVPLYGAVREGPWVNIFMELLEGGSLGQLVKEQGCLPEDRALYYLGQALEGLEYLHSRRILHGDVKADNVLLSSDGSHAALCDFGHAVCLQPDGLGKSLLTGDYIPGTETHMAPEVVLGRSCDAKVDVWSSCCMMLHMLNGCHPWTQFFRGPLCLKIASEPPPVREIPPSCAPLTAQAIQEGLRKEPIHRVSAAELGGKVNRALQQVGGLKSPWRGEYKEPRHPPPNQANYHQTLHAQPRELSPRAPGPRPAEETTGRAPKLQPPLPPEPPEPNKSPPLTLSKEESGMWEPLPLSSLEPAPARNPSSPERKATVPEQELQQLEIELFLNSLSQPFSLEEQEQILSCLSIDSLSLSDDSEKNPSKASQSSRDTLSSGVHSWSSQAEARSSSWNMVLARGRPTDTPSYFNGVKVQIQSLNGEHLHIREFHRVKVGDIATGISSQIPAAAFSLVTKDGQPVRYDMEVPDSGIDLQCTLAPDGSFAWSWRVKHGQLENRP

[4] = test system: p52 (NF-kB2) nuclear translocation in HeLa cells; assay: NIK p52 Translocation Assay (non-classical NF-kB signaling); format: cell-based; conditions: Homo sapiens; HeLa cells, 100 ng/mL anti-lymphotoxin beta receptor antibody, 5 hours; read-out: inhibitory value (IC50) for NIK p52 Translocation Assay
Protocol: as §1

| Compound | IC50 [1] [nM] | IC50 [2] [nM] | Ki [3] [nM] | IC50 [4] [nM] |
| --- | --- | --- | --- | --- |
| Cc1nn(-c2ccnc(N)n2)c2cc(C#C[C@@](C)(O)c3nccs3)ccc12 (stereo in doubt) [Example T1-42, 4-(1-(2-aminopyrimidin-4-yl)-3-methyl-1H-indazol-6-yl)-2-(thiazol-2-yl)but-3-yn-2-ol] | 220 | 14.2 | 0.14 |  |
| Cc1nn(-c2ccnc(N)n2)c2cc(C#CC(C)(O)c3nccs3)ccc12 (stereo not drawn) [Example T1-13, 4-(1-(2-aminopyrimidin-4-yl)-3-methyl-1H-indazol-6-yl)-2-(thiazol-2-yl)but-3-yn-2-ol] | 129 | 23.1 | 0.262 | 77 |
| CC(O)(C#Cc1ccc2nc(C3CC3)n(-c3ccnc(N)n3)c2c1)c1nccs1 (stereo not drawn) [Example T1-14, 4-(1-(2-aminopyrimidin-4-yl)-2-cyclopropyl-1H-benzo[d]imidazol-6-yl)-2-(thiazol-2-yl) but-3-yn-2-ol] | 7600 | 879 | 6.9 | 3400 |
| CC(O)(C#Cc1ccc2cnn(-c3ccnc(N)n3)c2c1)c1ncco1 (stereo not drawn) [Example T1-15, 4-(1-(2-aminopyrimidin-4-yl)-1H-indazol-6-yl)-2-(oxazol-2-yl)but-3-yn-2-ol] | 77 | 36.1 | 0.32 |  |
| CC1(C(=O)Nc2cnc(N)nc2-n2ncc3ccc(C#CC(C)(O)c4nccs4)cc32)COC1 (stereo not drawn) [Example T1-16, N-(2-amino-4-(6-(3-hydroxy-3-(thiazol-2-yl)but-1-ynyl)-1H-indazol-1-yl)pyrimidin-5-yl)-3-methyloxetane-3-carboxamide] | 3400 | 582 | 27 | 518 |
| CC(O)(C#Cc1ccc2c(CN3CCOCC3)nn(-c3ccnc(N)n3)c2c1)c1nccs1 (stereo not drawn) [Example T1-18, 4-(1-(2-aminopyrimidin-4-yl)-3-(morpholinomethyl)-1H-indazol-6-yl)-2-(thiazol-2-yl) but-3-yn-2-ol] | 518 | 142 | 1.7 | 59 |
| CC(C)(O)C#Cc1ccc2[nH]c(=O)n(-c3ccnc(N)n3)c2c1 [Example T1-20, 1-(2-aminopyrimidin-4-yl)-6-(3-hydroxy-3-methylbut-1-ynyl)-1H-benzo[d]imidazol-2(3H)-one] | 59 | 403 | 49 | 127 |
| CC(O)(C#Cc1ccc2[nH]c(=O)n(-c3ccnc(N)n3)c2c1)c1nccs1 (stereo not drawn) [Example T1-21, 1-(2-aminopyrimidin-4-yl)-6-(3-hydroxy-3-(thiazol-2-yl)but-1-ynyl)-1H-benzo[d] imidazol-2(3H)-one] | 514 | 59 | 0.3 |  |
| CN(C)Cc1nn(-c2ccnc(N)n2)c2cc(C#CC(C)(C)O)ccc12 [Example T1-25, 4-(1-(2-aminopyrimidin-4-yl)-3-((dimethylamino)methyl)-1H-indazol-6-yl)-2-methylbut-3-yn-2-ol] | 10 | 57.3 | 12 |  |
| CC(O)(C#Cc1ccc2ncn(-c3ccnc(N)n3)c2c1)C(F)F (stereo not drawn) [Example T1-26, 4-(1-(2-aminopyrimidin-4-yl)-1H-benzo[d]imidazol-6-yl)-1,1-difluoro-2-methylbut-3-yn-2-ol] |  | 1500 | 61 | 313 |
| Cc1cc(C(C)(O)C#Cc2ccc3ncn(-c4ccnc(N)n4)c3c2)no1 (stereo not drawn) [Example T1-28, 4-(1-(2-aminopyrimidin-4-yl)-1H-benzo[d]imidazol-6-yl)-2-(5-methylisoxazol-3-yl) but-3-yn-2-ol] | 313 |  | 0.42 |  |
| CN(C)C(=O)c1nn(-c2ccnc(N)n2)c2cc(C#CC(C)(O)c3nccs3)ccc12 (stereo not drawn) [Example T1-29, 1-(2-aminopyrimidin-4-yl)-6-(3-hydroxy-3-(thiazol-2-yl)but-1-ynyl)-N,N-dimethyl-1H-indazole-3-carboxamide] | 275 | 72.2 | 0.9 | 72.7 |
| CN(C)Cc1nn(-c2ccnc(N)n2)c2cc(C#CC(C)(O)c3ncco3)ccc12 (stereo not drawn) [Example T1-32, 4-(1-(2-aminopyrimidin-4-yl)-3-((dimethylamino)methyl)-1H-indazol-6-yl)-2-(oxazol-2-yl)but-3-yn-2-ol] | 72.7 | 589 | 1.3 |  |
| CCOc1nc2ccc(C#CC(C)(C)O)cc2n1-c1ccnc(N)n1 [Example T1-38, 4-(1-(2-aminopyrimidin-4-yl)-2-ethoxy-1H-benzo[d]imidazol-6-yl)-2-methylbut-3-yn-2-ol] |  | 1000 | 16 | 6400 |
| CC(O)(C#Cc1cc2c(cc1F)ncn2-c1ccnc(N)n1)c1nccs1 (stereo not drawn) [Example T1-39, 4-(1-(2-aminopyrimidin-4-yl)-5-fluoro-1H-benzo[d]imidazol-6-yl)-2-(thiazol-2-yl)but-3-yn-2-ol] | 194 | 31.1 | 0.25 | 220 |
| CC(C)(O)C#Cc1cc2c(cc1F)ncn2-c1ccnc(N)n1 [Example T1-40, 4-(1-(2-aminopyrimidin-4-yl)-5-fluoro-1H-benzo[d]imidazol-6-yl)-2-methylbut-3-yn-2-ol] |  | 332 | 3 | 346 |
| Cc1cc(C(C)(O)C#Cc2ccc3ncn(-c4ccnc(N)n4)c3c2)on1 (stereo not drawn) [Example T1-41, 4-(1-(2-aminopyrimidin-4-yl)-1H-benzo[d]imidazol-6-yl)-2-(3-methylisoxazol-5-yl) but-3-yn-2-ol] | 6400 | 309 | 8.5 |  |
| CN(C)C(=O)c1nn(-c2ccnc(N)n2)c2cc(C#CC(C)(O)c3ncco3)ccc12 (stereo not drawn) [Example T1-43, 1-(2-aminopyrimidin-4-yl)-6-(3-hydroxy-3-(oxazol-2-yl)but-1-ynyl)-N,N-dimethyl-1H-indazole-3-carboxamide] | 346 | 51 | 0.2 |  |
